Source: PubChem BioAssay AID2060891 (Molecular Pharmacology Branch, DTP, NCI, 2025)
Several values for one entry are separate records, joined by “and”; a condition that tells them apart may be missing. Equal values may be shown once.

System: K98450-129-R-PDC complex spheroid growth, percent test/control
Experiment: Anticancer human tumor K98450-129-R-PDC patient-derived colon adenocarcinoma cell line growth inhibition [RAS]
Conditions: for viability, T/C: stronger effect = lower value; active = viability on the fitted dose curve at most 10% of control; inactive = the rest
Text: RAS pathway inhibitors in Combinations in Complex Spheroids
A high-throughput screen of multi-cell type tumor spheroids was designed to identify active combinations of RAS pathway inhibitors and targeted small molecules. Complex spheroids include a stromal component modeled by human endothelial cells (HUVEC) and fibroblasts modeled by human mesenchymal stem cells (MSCs). The concentration ranges selected for each drug and investigational agent were based upon clinically achievable concentrations if the clinical Cmax of the agent was known.
Compounds. The drugs and investigational agents: abemaciclib (NSC768073), cobimetinib (NSC768068), divarasib (GDC6063, NSC841802), docetaxel (NSC628503), GDC-1971 (RLY-1971, NSC841576), gemcitabine (NSC613327), inavolisib (NSC800729), ipatasertib (NSC767898), KB-0742 (NSC834161), MRTX-1133 (NSC836407), osimertinib (NSC779217), RMC-4630 (NSC839698), RMC-6236 (NSC851965), RMC-6291 (NSC852671), Ro-3306 (NSC812927), sapanisertib (NSC764658), SN-38 (NSC673596), staurosporine (NSC755774), SY5609 (NSC837396), and tovorafenib (DAY101, NSC766906), were obtained from the National Cancer Institute (NCI) Developmental Therapeutics Program Chemical Repository. The FDA-approved anticancer drug set is available from the NCI Developmental Therapeutics Program. […] The stock solutions were prepared in dimethyl sulfoxide (DMSO, Sigma-Aldrich, St. Louis, MO, cat. D2650) at 800-fold the tested concentration and stored at -70 degrees C prior to their use. All drugs and investigational agents were tested over a range starting from a high concentration at or near the clinical Cmax and decreasing in half-log increments. If the clinical Cmax for an agent had not been determined, the highest concentration tested was 10 microM.
Cell Culture. All cells were maintained in an incubator at 37 degrees C and 5% CO2 with 95% humidity. The PDC lines were cultured according to standard operating procedures established by the NCI PDMR. All PDCs were thawed and cultured in Matrigel-coated flasks prepared with a working solution of 1X Ham's F-12 nutrient mix, without supplementation (Invitrogen, Waltham, MA, cat. 11765054), 100 U/mL penicillin-streptomycin (Invitrogen, cat. 15140122), and 2.5% Matrigel (Corning Inc., Corning, NY, cat. 354248) for the first three passages. The 362531-283-R-J2-PDC and 782815-120-R-J1-PDC lines were cultured in 6C/Colon 1B media, which includes advanced DMEM/F-12 (Thermo Fisher Scientific, cat. 12634028), 10 mM HEPES (Thermo Fisher Scientific, cat. 15630080), 1X GlutaMAX supplement (Thermo Fisher Scientific, cat. 35050061), 0.1 mg/mL primocin (InvivoGen, San Diego, CA, cat. ant-pm-2), 10% defined fetal bovine serum, heat inactivated (HyClone Laboratories Inc., Logan, UT, cat. SH30070.03HI), 50% L-WRN conditioned media (ATCC, cat. CRL-3276), 1.25 mM N-Acetyl-L-cysteine (Sigma-Aldrich, cat. A9165), 10 mM nicotinamide (Sigma-Aldrich, cat. N0636), 1X B-27 supplement (Thermo Fisher Scientific, cat. 17504044), 1X N-2 supplement (Thermo Fisher Scientific, cat. 17502048), 50 ng/mL human EGF (Thermo Fisher Scientific, cat. PHG0311), and 10 microM Y-27632 dihydrochloride (Tocris Bioscience, cat. 1254). The K12877-001-R-J1-PDC line was cultured in 6I media, which includes all 6C/Colon 1B media plus 10 ng/mL human FGF-10 (PeproTech, cat. 100-26), 1 ng/mL human FGF-2 (PeproTech, cat. 100-18B), 1 µM prostaglandin E2 (Tocris Bioscience, cat. 2296), […] hydrocortisone (Sigma-Aldrich, cat. H4001), and […] bovine insulin (Sigma-Aldrich, cat. I6634). The K86415-001-R-J1-PDC line was cultured in 6D media, which includes all 6C/Colon 1B media components minus the L-WRN conditioned media. The 485176-168-R4-J1-PDC was cultured in PANC media, which includes all 6C/Colon 1B media plus 100 ng/mL human FGF-10 (PeproTech, cat. 100-26), 500 nM SB-431542 (Selleckchem, cat. S1067), and 10 nM gastrin (Tocris Bioscience, cat. 3006). […]
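Note: spheroids exposed to agents for seven days before the viability readout.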
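Throughout, for viability, T/C: luminescence used as a proxy for viable cell amount.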

CC(Nc1ccc2c(c1)OCCn1cc(N3C(=O)OCC3C(F)F)nc1-2)C(N)=O (configuration not stated)
inactive: viability, T/C (compound 0.0316 µM) 99.5% [middle of 4 runs] | viability, T/C (compound 0.1 µM) 91.6% [middle of 4 runs] | viability, T/C (compound 0.316 µM) 91.2% [middle of 4 runs] | viability, T/C (compound 1 µM) 88.9% [middle of 4 runs] | viability, T/C (compound 3.16 µM) 81.3% [middle of 4 runs] | viability, T/C (compound 10 µM) 73.7% [middle of 4 runs]
> 10000 nM: IC50 (curve of compound)

CC1(C)CCC(Nc2ncc(C(F)(F)F)c(-c3c[nH]c4c(P(C)(C)=O)c(C#N)ccc34)n2)CN1 (configuration not stated)
inactive: viability, T/C (compound 0.000949 µM) 105% [middle of 4 runs] | viability, T/C (compound 0.003 µM) 105% (2×) and 98.6% and 96.4% | viability, T/C (compound 0.00949 µM) 106% [middle of 4 runs] | viability, T/C (compound 0.03 µM) 107% (2×) and 109% and 99.9% | viability, T/C (compound 0.0949 µM) 94.4% [middle of 4 runs] | viability, T/C (compound 0.3 µM) 86.1% [middle of 4 runs]
> 300 nM: IC50 (curve of compound)

CCN1CCN(Cc2ccc(Nc3ncc(F)c(-c4cc(F)c5nc(C)n(C(C)C)c5c4)n3)nc2)CC1
> 1000 nM: IC50 (curve of compound)
inactive: viability, T/C (compound 0.00316 µM) 103% [middle of 4 runs] | viability, T/C (compound 0.01 µM) 99.4% [middle of 4 runs] | viability, T/C (compound 0.0316 µM) 96.8% [middle of 4 runs] | viability, T/C (compound 0.1 µM) 97.3% [middle of 4 runs]

CCc1c2c(nc3ccc(O)cc13)-c1cc3c(c(=O)n1C2)COC(=O)[C@]3(O)CC
48.9 nM and > 300 nM and 43.1 nM: IC50 (curve of compound)
inactive: viability, T/C (compound 0.000949 µM) 104% [middle of 4 runs] | viability, T/C (compound 0.003 µM) 97.8% [middle of 4 runs] | viability, T/C (compound 0.00949 µM) 92.5% [middle of 4 runs] | viability, T/C (compound 0.03 µM) 69% [middle of 4 runs] | viability, T/C (compound 0.3 µM) 49.5% [middle of 4 runs]

CCn1c(-c2cc(N3CCN(C)CC3)cnc2C(C)OC)c2c3cc(ccc31)-c1csc(n1)CC(NC(=O)C1CC1C)C(=O)N1CCCC(N1)C(=O)OCC(C)(C)C2 (configuration not stated)
35 nM [middle of 8 runs]: IC50 (compound alone, run of 05/20/2024)
inactive: viability, T/C (compound 0.000949 µM) 93.1% [middle of 8 runs] | viability, T/C (compound 0.003 µM) 86.4% [middle of 8 runs] | viability, T/C (compound 0.03 µM) 56.8% [middle of 8 runs] | viability, T/C (compound 0.0949 µM) 23.6% [middle of 8 runs] | viability, T/C (compound 0.3 µM) 14.1% [middle of 8 runs]

CCn1c(-c2cccnc2C(C)OC)c2c3cc(ccc31)N1CCOC(CC(NC(=O)C(C(C)C)N(C)C(=O)C3(F)CCN(C(=O)C#CC(C)(C)N(C)C)CC3)C(=O)N3CCCC(N3)C(=O)OCC(C)(C)C2)C1 (configuration not stated)
inactive: viability, T/C (compound 0.000949 µM) 78.5% [middle of 8 runs] | viability, T/C (compound 0.003 µM) 63.4% [middle of 8 runs] | viability, T/C (compound 0.00949 µM) 47.8% [middle of 8 runs] | viability, T/C (compound 0.03 µM) 43.1% [middle of 8 runs] | viability, T/C (compound 0.0949 µM) 41.6% [middle of 8 runs] | viability, T/C (compound 0.3 µM) 35.3% [middle of 8 runs]

Nc1ccn(C2OC(CO)C(O)C2(F)F)c(=O)n1 (configuration not stated)
inactive: viability, T/C (compound 0.00316 µM) 80.7% and 103% (2×) and 107% | viability, T/C (compound 0.01 µM) 96.2% [middle of 4 runs] | viability, T/C (compound 0.0316 µM) 78.8% [middle of 4 runs] | viability, T/C (compound 1 µM) 49.4% [middle of 4 runs]

O=C(c1ccc(F)c(F)c1Nc1ccc(I)cc1F)N1CC(O)([C@@H]2CCCCN2)C1
active: viability, T/C (compound 1 µM) 3.22% [middle of 4 runs]
190 nM [middle of 4 runs]: IC50 (curve of compound)
inactive: viability, T/C (compound 0.00316 µM) 103% [middle of 4 runs] | viability, T/C (compound 0.0316 µM) 97.5% [middle of 4 runs] | viability, T/C (compound 0.1 µM) 82.3% [middle of 4 runs] | viability, T/C (compound 0.316 µM) 21.8% [middle of 4 runs]
